Measurements taken from patent publication US20210046094A1, “COMPOSITIONS AND METHODS FOR TREATING PAIN” (THE UNITED STATES GOVERNMENT AS REPRESENTED BY THE …, priority 2018, published 2021).
Entries after “also recorded” stand apart in the source; their conditions may differ.

Key:
[1] = system: mice with peripheral nerve injury (PNI) by sciatic nerve cuffing; assay: Sciatic nerve cuff model: thermal hyperalgesia (Hargreaves method); format: in vivo, mouse; settings: adult male mice; intrathecal at lumbar 5, 5 ng/hour ×14 days from day +15; tested day +28
Method: THERMAL […] is assessed using the Hargreaves method, using a Hargreaves-type apparatus (Ugo Basile Plantar Test Instrument; Stoelting). An unrestrained animal is placed in a Perspex enclosure on the top of glass pane. An infrared generator placed below glass pane is aimed at the plantar surface of the hind paw and the time to withdrawal is recorded automatically via an optic sensor, avoiding experimental bias. Paw-withdrawal latency is calculated as the mean of 3-5 different measurements taken at 15 min intervals. […] On day 0, all mice underwent unilateral sciatic nerve cuffing, in which a 2 mm long section of pre-split PE-20 tubing is placed around the right sciatic nerve under sterile conditions (Yalcin et al., The sciatic nerve cuffing model of neuropathic pain in mice, J Vis Exp, PMID 25078668 (2014)).

[2] = infusion of an appropriate dose of injectable glibenclamide, non-diabetics; below hypoglycemic threshold; cited from earlier work
[3] = system: mice with peripheral nerve injury (PNI) by sciatic nerve cuffing; assay: Sciatic nerve cuff model: anxiety- and depression-like behaviors (open field, elevated plus maze, tail suspension); format: in vivo, mouse; settings: WT mice; 10 μg/day intraperitoneal starting on day 21 after PNI
Method: ANXIETY-LIKE and DEPRESSION-LIKE BEHAVIORS are assessed only one time, they are administered during the 3 days preceding euthanasia, and the order in which tests are applied is from least stressful to more stressful (as listed below). We follow standard protocols, fully described in Yalcin et al (Yalcin et al., A time-dependent history of mood disorders in a murine model of neuropathic pain, Biol Psychiatry, 70:946-53, PMID 21890110 (2011)). Open field testing is employed for measuring locomotor activity and willingness to explore in mice. A computerized tracking system (ANY-Maze; Stoelting Co.) records animal movements and calculates speed, distance and other parameters. Time spent exploring the center of the open field is inversely related to anxiety. Elevated Plus Maze (Colbourn Instruments). Rodents naturally tend to explore novel environments, but open, well lit, elevated areas are perceived as aversive. This test is widely used in rodent models of anxiety. Tail suspension test (Harvard Apparatus), which measures immobility time, as well as energy and power in motion, is employed as a measure of depression-like behavior in rodents.

[4] = system: pCaMKII; assay: Astrocytic pCaMKII post-PNI (immunolabeling); format: in vivo, mouse; settings: versus vehicle, n=3/group
[5] = system: IL-6; assay: Quantitative immunohistochemistry of ipsilateral dorsal horn astrocytes after PNI: IL-6; format: in vivo, mouse
Excerpt: (§1) Tissue analysis. Spinal cords are perfusion-fixed (4% PFA), cryoprotected and cryosectioned coronally (7 μm). The dorsal horns of L3-4, which innervates the plantar surface of the mouse hindpaw (Rigaud et al., Species and strain differences in rodent sciatic nerve anatomy: implications for studies of neuropathic pain, Pain, 136:188-201, PMID: 18316160 (2008)), are examined for markers of astrocyte activation (GFAP), Sur1-Trpm4 and IL-6, as well as the chemokines CCL2 and CXCL1. […]
(§2) Tissue analysis. […] The DRG and dorsal horns of L3-4, which innervate the plantar surface of the hindpaw (Rigaud et al., Species and strain differences in rodent sciatic nerve anatomy: implications for studies of neuropathic pain, Pain, 136:188-201, PMID 18316160 (2008)), are examined to quantify changes in, and the time course of those changes, for markers of astrocyte activation (GFAP), microglia/macrophage activation (Iba1, CD68), SUR1-TRPM4, IL-6, the chemokines, CCL2 and CXCL1 and their cognate receptors, CCR2 and CXCR2. Expression of these markers will be quantitatively compared in the different treatment groups using immunohistochemistry and in situ hybridization with cell-specific markers (GFAP, NeuN, Iba1, CD45). Quantitative comparisons will be validated using immunoblot and qPCR. […]

[6] = system: GFAP or SUR1; assay: Intrathecal infusion in uninjured, naive mouse: GFAP and SUR1 expression; format: in vivo
Excerpt: Spinal cord-specific inhibition or downregulation of SUR1 in central glia. […] The anesthetized mouse is mounted in a stereotaxic apparatus, hair is clipped from the dorsal thoracolumbar region, and the skin is prepped with Betadine solution. Using microscopic visualization, a midline incision is made, the paraspinal muscles are dissected off of the spinous processes and laminae. The spinous processes of L6-S1 are removed using a high speed surgical drill, and the dura between them is punctured using a 27-g needle. The infusion cannula of a Brain infusion kit (30 gauge cannula; Brain Infusion kit 3) is advanced stereotactically 1 mm into the thecal sac and is secured to the spine with cement.

[7] = system: CCL2; assay: Quantitative immunohistochemistry of ipsilateral dorsal horn astrocytes after PNI: CCL2; format: in vivo, mouse
Excerpt: as §1, §2

[8] = system: experimental autoimmune encephalomyelitis; settings: cited from earlier work
[9] = system: mice with peripheral nerve injury (PNI) by sciatic nerve cuffing; assay: Sciatic nerve cuff model of neuropathic pain: mechanical allodynia (von Frey filaments); format: in vivo, mouse
Excerpt: WT mice underwent unilateral PNI by sciatic nerve cuffing, a widely accepted model of neuropathic pain in mice (Valcin et al. The sciatic nerve cuffing model of neuropathic pain in mice, J Vis Exp, PMID: 25078668 (2014)). Sciatic nerve cuffing reliably induces signs of chronic pain, including sustained mechanical and thermal allodynia. In this model, mechanical allodynia assessed using von Frey filaments develops within 1 week, and is sustained thereafter.
(§3) Sciatic nerve cuff model of neuropathic pain (Valcin et al. The sciatic nerve cuffing model of neuropathic pain in mice, J Vis Exp, PMID: 25078668 (2014)). Surgeries are performed under ketamine/xylazine anesthesia using aseptic techniques. The common branch of the right sciatic nerve is dissected and a 2 mm long section of pre-split PE-20 tubing is placed around it. Shams undergo the same surgery without cuffing.
Mechanical hypersensitivity. The threshold for ipsi- and contralateral hindpaw withdrawal is determined using von Frey filaments (Chaplan et al., Quantitative assessment of tactile allodynia in the rat paw, J Neurosci Methods, 53:55-63, PMID: 7990513(1994)).Mice are placed in clear Plexiglas boxes on an elevated mesh screen.
Calibrated von Frey filaments are applied to the plantar surface of each hindpaw (0.16-15 gm). The “up-down method” (Chaplan et al., Quantitative assessment of tactile allodynia in the rat paw, J Neurosci Methods, 53:55-63, PMID: 7990513(1994)) is used to determine the withdrawal threshold.
MECHANICAL ALLODYNIA. The threshold for ipsi- and contralateral hindpaw withdrawal is determined using von Frey filaments. von Frey filaments are applied to the plantar surface of each hindpaw (0.16-4 gm). The “up-down method (Chaplan et al., Quantitative assessment of tactile allodynia in the rat paw, J Neurosci Methods, 53:55-63, PMID 7990513 (1994))” is used to determine the withdrawal threshold, as in our previous studies (Masri et al., Zona incerta: a role in central pain, J Neurophysiol, 102:181-91, PMID 19403748 (2009); Whitt et al., Pathological activity in mediodorsal thalamus of rats with spinal cord injury pain, J Neurosci, 33:3915-26, PMID 23447602 (2013)). Alternatively, the withdrawal threshold is determined using the Hugo Basile Dynamic Plantar Aesthesiometer (Stoelting).
On day 0, all mice underwent unilateral sciatic nerve cuffing, in which a 2 mm long section of pre-split PE-20 tubing is placed around the right sciatic nerve under sterile conditions (Yalcin et al., The sciatic nerve cuffing model of neuropathic pain in mice, J Vis Exp, PMID 25078668 (2014)).

[10] = system: mice with peripheral nerve injury (PNI) by sciatic nerve cuffing; assay: Sciatic nerve cuff model: cold/thermal allodynia (acetone); format: in vivo, mouse; settings: WT mice
Method: as §3
(§4) Cold allodynia is assessed using acetone. A 10 μL volume of acetone is propelled via air burst from a 200 μL pipette onto the mid-plantar surface of the hind paw without touching the skin. Time spent elevating/licking/biting/shaking the stimulated paw, up to 15 sec, is measured with a stop watch. Each paw is stimulated 5×, allowing 5 min to elapse between successive paw stimulations.
as §4, with “THERMAL ALLODYNIA” for “Cold allodynia”, “acetone (Carey et al., Inflammatory and Neuropathic Nociception is Preserved in GPR55 Knockout Mice, Sci Rep, 7:944, PMID 28428628 (2017)).” for “acetone.”

[11] = administered via transdermal skin patch, preclinical; cited from earlier work
[12] = Normal mechanical or thermal sensitivity thresholds (non-sensitized condition); format: in vivo; settings: non-sensitized condition (not shown)
[13] = system: CXCL1; assay: Quantitative immunohistochemistry of ipsilateral dorsal horn astrocytes after PNI: CXCL1; format: in vivo, mouse
Excerpt: as §1, §2

[14] = Example 1 mice (FIG. 2D), compared to vehicle-treated controls
[15] = mice from FIG. 10 (10 μg/day IP from day 21), tissues at day 49 (FIG. 6D)
[16] = WT mice, 10 μg/day intraperitoneal starting on day 21 after PNI

## COc1ccc(Cl)cc1C(=O)NCCc1ccc(S(=O)(=O)NC(=O)NC2CCCCC2)cc1 [glibenclamide]
[1]
  thermal hyperalgesia: completely reversed
[2]
  serum levels: < 45 ng/mL
[3]
  anxiety behaviors (open field and elevated plus maze): significantly ameliorated
  depression-like behaviors (tail suspension): significantly ameliorated
[4]
  astrocytic pCaMKII: increases
[5]; [14]
  IL-6 in ipsilateral dorsal horn astrocytes: significant reduction
[5]; [15]
  IL-6 in ipsilateral dorsal horn astrocytes: significant reductions
[6]
  upregulation of GFAP or SUR1: does not upregulate GFAP or SUR1
[7]; [14]
  CCL2 in ipsilateral dorsal horn astrocytes: significant reduction
[7]; [15]
  CCL2 in ipsilateral dorsal horn astrocytes: significant reductions
[8]; CNS inflammatory condition (EAE)
  entry into spinal cord tissues: readily enters spinal cord tissues
[8]; EAE spinal cord
  inflammation: ameliorates inflammation
[9]; WT mice, 10 μg IP loading dose plus 40 ng/hr subcutaneous via mini-osmotic pump ×2 weeks, shortly after PNI
  mechanical allodynia: significant blunting
[9]; [16]
  duration of drug treatment required for complete reversal of mechanical allodynia: 2-3 weeks
  mechanical allodynia: significantly ameliorated; also recorded: gradual but complete reversal
[9]; WT mice, treatment beginning on day 18 after PNI, after allodynia was well established
  allodynia symptoms (mechanical allodynia, FIG. 3C): significant reversal
[9]; adult male mice, intrathecal at lumbar 5, 5 ng/hour ×14 days from day +15, tested day +28
  mechanical allodynia: completely reversed
[10]; 10 μg IP loading dose plus 40 ng/hr subcutaneous via mini-osmotic pump ×2 weeks, shortly after PNI
  cold allodynia: significant blunting
[10]; 10 μg/day intraperitoneal starting on day 21 after PNI
  thermal allodynia: significantly ameliorated
[11]
  plasma levels: steady plasma levels of drug that can be maintained below the hypoglycemic threshold
[12]
  normal mechanical sensitivity thresholds: does not modify
  normal thermal sensitivity thresholds: does not modify
[13]; [14]
  CXCL1 in ipsilateral dorsal horn astrocytes: significant reduction
[13]; [15]
  CXCL1 in ipsilateral dorsal horn astrocytes: significant reductions
